Measured values published in ChEMBL document CHEMBL4196203, “BACE1 Inhibitory Meroterpenoids from Aspergillus terreus” (J Nat Prod, 2018).

Molecular target: Beta-secretase 1 (Homo sapiens, UniProt P56817)
Test: Inhibition of human BACE1 using MOCA-SEV-NL-DAEFR-DNP-RR as substrate measured after 2 hrs by FRET assay

Chain of Beta-secretase 1 (P56817 whole entry): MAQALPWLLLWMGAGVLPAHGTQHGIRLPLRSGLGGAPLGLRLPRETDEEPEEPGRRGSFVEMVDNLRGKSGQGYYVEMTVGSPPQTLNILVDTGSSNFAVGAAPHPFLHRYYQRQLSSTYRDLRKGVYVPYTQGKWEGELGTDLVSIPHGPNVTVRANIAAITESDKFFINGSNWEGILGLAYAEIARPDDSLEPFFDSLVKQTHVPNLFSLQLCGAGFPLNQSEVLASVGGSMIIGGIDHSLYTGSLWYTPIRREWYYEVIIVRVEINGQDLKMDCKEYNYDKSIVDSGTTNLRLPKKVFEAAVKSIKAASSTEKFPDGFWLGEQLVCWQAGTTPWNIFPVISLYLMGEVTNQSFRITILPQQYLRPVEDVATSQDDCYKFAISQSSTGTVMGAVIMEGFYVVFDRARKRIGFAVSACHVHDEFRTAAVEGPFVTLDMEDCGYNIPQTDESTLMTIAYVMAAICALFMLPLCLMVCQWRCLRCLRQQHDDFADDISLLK

| SMILES | IC50 |
| --- | --- |
| C=C1[C@@H]2O[C@@]23[C@]2(C)CCC(=O)C(C)(C)C2=C(O)C(=O)[C@]3(C)[C@H]2C(=O)O[C@](C)(C(=O)OC)C(=O)[C@]12C | > 50 µM |
| C=C1C[C@H]2[C@]3(C)CCC(=O)C(C)(C)[C@H]3C(=O)C[C@]2(C)[C@]2(C(=O)OC)C(=O)[C@H](C)OC(=O)[C@]12C | > 50 µM |
| C=C1C[C@H]2[C@]3(C)CCC(=O)C(C)(C)[C@H]3CC[C@]2(C)[C@]2(C(=O)OC)C(=O)[C@@](C)(O)C(=O)[C@]12C | > 50 µM |
| C=C1C[C@H]2[C@]3(C)CCC(=O)C(C)(C)[C@H]3C(=O)[C@@H](O)[C@]2(C)[C@H]2C(=O)O[C@](C)(C(=O)OC)C(=O)[C@]12C | > 50 µM |
| C=C1C[C@H]2[C@]3(C)CC[C@@H](O)C(C)(C)[C@H]3C(=O)[C@@H](O)[C@]2(C)[C@@H](C(=O)OC)[C@]1(C)C(=O)[C@](C)(O)C(=O)OC | > 50 µM |
| C=C1C[C@H]2[C@]3(C)CCC(=O)C(C)(C)[C@H]3C(=O)C[C@]2(C)[C@@H](C(=O)OC)[C@]1(C)C(=O)[C@](C)(O)C(=O)OC | > 50 µM |
| C=C1C[C@H]2[C@]3(C)CCC(=O)C(C)(C)[C@H]3C(=O)[C@@H](O)[C@]2(C)[C@H]2C(=O)O[C@](C)(C(=O)OCC)C(=O)[C@]12C | > 50 µM |
| C=C1C[C@H]2[C@]3(C)CCC(=O)C(C)(C)[C@@H]3C(=O)[C@@H](O)[C@]2(C)[C@H]2C(=O)O[C@@H](C)C(=O)[C@]12C | 5.85 µM |
| C=C1C[C@H]2[C@]3(C)CCC(=O)C(C)(C)[C@H]3C(=O)[C@@H](O)[C@]2(C)[C@H]2C(=O)O[C@@H](C)C(=O)[C@]12C | > 50 µM |
| C=C1C[C@@H]2[C@](C)(C(=O)C(O)=C3C(C)(C)C(=O)CC[C@]32C)[C@@H](C(=O)OC)[C@]1(C)C(=O)[C@](C)(O)C(=O)OC | > 50 µM |
| C=C1C[C@@]2(O)[C@]3(C)CCC(=O)C(C)(C)C3=C(O)C(=O)[C@]2(C)[C@H]2C(=O)O[C@](C)(C(=O)OC)C(=O)[C@]12C | > 50 µM |
| C=C1C[C@@H]2[C@](C)(C(=O)C(O)=C3C(C)(C)C(=O)CC[C@]32C)[C@H]2C(=O)O[C@](C)(C(=O)OC)C(=O)[C@]12C | > 50 µM |
| C=C1C[C@H]2[C@]3(C)CCC(=O)C(C)(C)[C@@H]3C(=O)[C@@H](O)[C@]2(C)[C@H]2C(=O)O[C@](C)(C(=O)OC)C(=O)[C@]12C | 3.32 µM |
| C=C1C[C@H]2[C@]3(C)CCC(=O)C(C)(C)[C@H]3C(=O)[C@@H](O)[C@]2(C)[C@@H]2C(=O)O[C@](C)(C(=O)OC)C(=O)[C@]12C | > 50 µM |
| C=C1C[C@H]2[C@]3(C)CCC(=O)C(C)(C)[C@H]3C(=O)[C@@H](O)[C@]2(C)[C@@H](C(=O)OC)[C@]1(C)C(=O)[C@](C)(O)C(=O)OC | > 50 µM |
| C=C1C[C@H]2[C@]3(C)CCC(=O)C(C)(C)[C@@H]3C(=O)[C@@H](O)[C@]2(C)[C@@H](C(=O)OC)[C@]1(C)C(=O)[C@](C)(O)C(=O)OC | 31.7 µM |
